These results are taken from ChEMBL document CHEMBL2407033, “Pin1 inhibitors: Pitfalls, progress and cellular pharmacology” (Bioorg Med Chem Lett, 2013).

Where a SMILES comes first, the peptide text is derived from it. Bridges are numbered along the chain shown (N, C = ends).

Series [1] concerns the target T1, Peptidyl-prolyl cis-trans isomerase NIMA-interacting 1 (Homo sapiens, UniProt Q13526). As to the kind of experiment: Inhibition of Pin1 (unknown origin).
The target of series [2] is T1, Peptidyl-prolyl cis-trans isomerase NIMA-interacting 1. As to the kind of experiment: Reversible inhibition of human Pin1.
The target is the same in series [3]. As to the kind of experiment: Inhibition of GST-tagged Pin1 (unknown origin) using Suc-AEPF-pNA and WFYpSPR-pNA as substrate after 5 mins.
Series [4] shares this target. The series is described as follows: Competitive inhibition of Pin1 (unknown origin) by Lineweaver-Burk plot analysis.
Series [5] has the same target. The series is described as follows: Inhibition of human Pin1.
The target is the same in series [6]. As to the kind of experiment: Inhibition of Pin1 (unknown origin) using Suc-Ala-Glu-Pro-Phe-MCA as substrate after 120 secs by fluorescence microtiter plate reader analysis.
For series [7], the target named is Peptidyl-prolyl cis-trans isomerase NIMA-interacting 4 (Homo sapiens, UniProt Q9Y237). The series is described as follows: Inhibition of Par14 (unknown origin).
The target in series [8] is T1, Peptidyl-prolyl cis-trans isomerase NIMA-interacting 1. The series is described as follows: Inhibition of Pin1 in human MCF7 cells assessed as inhibition of etoposide-induced p53 transcription at 30 uM by luciferase reporter gene assay relative to control. Type of series: cell-based.
Series [9] has the same target. As to the kind of experiment: Inhibition of Pin1 in human MCF7 cells assessed as inhibition of etoposide-induced p53 transcription at 10 uM by luciferase reporter gene assay relative to control. Type of series: cell-based.
Series [10] shares this target. The series is described as follows: Binding affinity to GST-tagged Pin1 (unknown origin) by SPR spectroscopic analysis.
Series [11] deals with MEF. The series is described as follows: Growth inhibition of MEF expressing Pin1. The format is functional. To be noted: Mus musculus.
In series [12] the target is T1, Peptidyl-prolyl cis-trans isomerase NIMA-interacting 1. As to the kind of experiment: Inhibition of full length Pin1 (unknown origin) using WFY(pS)PR-pNA as substrate by spectrophotometric analysis.
A short description of series [13]: Growth inhibition of Pin1-deficient MEF. Type of series: cell-based. To be noted: mouse, Pin1-deficient MEF cells.
The nature of series [14]: Growth inhibition of human […] cells. The format is functional.
Series [15] has as its target T1, Peptidyl-prolyl cis-trans isomerase NIMA-interacting 1. As to the kind of experiment: Inhibition of Pin1 (unknown origin) using Suc-Ala-Glu-cis-Pro-Phe-pNA as substrate.

T1 sequence (Q13526 whole entry): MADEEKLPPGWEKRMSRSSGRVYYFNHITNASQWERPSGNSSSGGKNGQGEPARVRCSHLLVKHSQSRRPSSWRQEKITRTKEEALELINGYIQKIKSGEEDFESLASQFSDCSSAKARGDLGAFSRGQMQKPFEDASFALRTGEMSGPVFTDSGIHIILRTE
Chain of Peptidyl-prolyl cis-trans isomerase NIMA-interacting 4 (Q9Y237 whole entry): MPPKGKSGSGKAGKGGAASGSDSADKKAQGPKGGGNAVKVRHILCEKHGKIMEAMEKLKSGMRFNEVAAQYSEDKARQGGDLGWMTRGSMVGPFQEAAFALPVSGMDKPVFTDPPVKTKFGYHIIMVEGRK

Regarding `Cc1oc(-c2ccc(CN)cc2)cc1C(=O)N[C@H](Cc1nc2ccccc2[nH]1)C(=O)O`, half-maximal inhibition in series [1] (IC50) was put at 25 nM. This counts as double-digit nanomolar. `CC(=O)N[C@@H](C)C(=O)N[C@@H](C)C(=O)N[C@H](COP(=O)(O)O)C(=O)N1CCC[C@H]1C(=O)N[C@@H](CCCNC(=N)N)C(=O)Nc1ccc([N+](=O)[O-])cc1` had an IC50 in series [2] of 1000 nM. On to `CC[C@H](C)[C@@H]1NC(=O)[C@H](CCC(=O)O)NC(=O)[C@H](C(C)C)NC(=O)[C@H](CCC(=O)O)NC(=O)[C@@H]2CCCN2C(=O)[C@H](Cc2ccc(O)cc2)NC(=O)[C@H](CCCN=C(N)N)NC(=O)[C@@H](N)CSSC[C@@H](C(=O)O)NC1=O` [CYCLIC CRYPEVEIC] (H-CRYPEVEIC-OH; disulfide 1-9), for which half-maximal inhibition in series [3] (IC50) required 500 nM. That is a sub-micromolar value. Regarding `S=C(SC(=S)N1CCCCC1)N1CCCCC1`, the affinity in [4], expressed as Ki, was 50 nM. For the same compound, in series [1], the half-inhibitory concentration (IC50) was found to be 4000 nM. In [5], `CCCCCc1ccc(CCC(=O)N[C@H](Cc2ccc(O)cc2)C(=O)N[C@@H](Cc2ccc(O)cc2)C(=O)N[C@@H](Cc2ccc3ccccc3c2)C(=O)O)cc1` returned a half-inhibitory concentration (IC50) of 600 nM. Take `CCOC(=O)CN1C(=O)c2ccc3c4c(ccc(c24)C1=O)C(=O)N(CC(=O)OCC)C3=O`: the half-maximal inhibitory concentration (IC50) in series [6] and in [7] was 1500 nM in each case. Take `COc1ccc(F)cc1C(=O)[C@@]1(C)CCc2ccccc21`: the inhibition in series [8] was 25%. Consider `COc1ccc(F)cc1C(=O)[C@]1(C)CCc2ccccc21`, for which the inhibition in series [9] is above 75%. The compound also yielded an IC50 in [1] of 5600 nM. Regarding `O=c1ccsn1-c1ccc(F)c(Cl)c1`, in series [10], the half-maximal inhibitory concentration (IC50) stood at 6100 nM.

`O=C(O)C[C@@H](C/C=C/c1cccc(F)c1)NC(=O)c1ccc2ccccc2c1`: in [5], the IC50 was determined as 890 nM. With `O=C(O[C@@H]1Cc2c(O)cc(O)cc2O[C@@H]1c1cc(O)c(O)c(O)c1)c1cc(O)c(O)c(O)c1` [EPIGALOCATECHIN GALLATE], the 50% growth inhibitory concentration (GI50) in series [11] is 7000 nM; in series [13], 14000 nM. Moreover, the IC50 in series [12] stood at 20000 nM. `O=C(c1cc(-c2c(O)c([N+](=O)[O-])cc(F)c2[N+](=O)[O-])cc([N+](=O)[O-])c1O)C1CCc2ccccc21` (racemic) had a concentration for half-maximal inhibition (IC50) in [2] of 200 nM. The compound `CC(=O)N[C@@H](Cc1ccccc1)C(=O)N[C@@H](Cc1ccccc1)C(=O)N[C@H](/C=C1/CCC[C@H]1C(=O)N[C@@H](CCCNC(=N)N)C(N)=O)COP(=O)(O)O` returned a GI50 in series [14] of 8000 nM. The same compound had an IC50 in [15] of 1500 nM. In series [5], `O=C(N[C@H](Cc1cccc(F)c1)c1nn[nH]n1)c1ccc2ccccc2c1` had a half-maximal inhibitory concentration (IC50) of 4000 nM. This counts as single-digit micromolar. With `O=C(N[C@@H](COP(=O)(O)O)CN1CCC[C@H]1C(=O)NCCc1c[nH]c2ccccc12)OCC1c2ccccc2-c2ccccc21`, the midpoint of inhibition in series [1], the IC50, lay at 6000 nM.
